Experimental findings from ChEMBL document CHEMBL6177964 (Eur J Med Chem, 2025) are described below.

Active and inactive are the calls of the source. The calls are words filed in the database; no cut-off is given here. Residues, ends and D or L forms follow the SMILES beside them.

Experiment [1] concerns the target T1, Angiotensin-converting enzyme (Homo sapiens, UniProt P12821). As to the kind of experiment: Binding affinity to ACE (unknown origin) assessed as change in entropy (-TdeltaS) at 800 to 1400 nM by isothermal titration calorimetric analysis. Particulars: dose 800-1400 nM. A general note: ITC needs no label: the signal is the heat of the interaction.
In experiment [2] the target is T1, Angiotensin-converting enzyme. As to the kind of experiment: Binding affinity to ACE (unknown origin) assessed as change in enthalpy at 800 to 1400 nM by isothermal titration calorimetric analysis. Particulars: dose 800-1400 nM.
Experiment [3] has the same target. As to the kind of experiment: Inhibition of ACE (unknown origin) preincubated with compound for 5 mins and measured after 60 mins.
Experiment [4] has the same target. The experiment is described as follows: Binding affinity to ACE (unknown origin) assessed as change in entropy (deltaS) at 800 to 1400 nM by isothermal titration calorimetric analysis. Particulars: dose 800-1400 nM.
For experiment [5] the target is unchanged. As to the kind of experiment: Binding affinity to ACE (unknown origin) assessed as change in Gibbs free energy at 800 to 1400 nM by isothermal titration calorimetric analysis. Particulars: dose 800-1400 nM.
Experiment [6] shares this target. As to the kind of experiment: Binding affinity to ACE (unknown origin) assessed as dissociation constant by isothermal titration calorimetric analysis.
Experiment [7] has the same target. As to the kind of experiment: Binding affinity to ACE (unknown origin) measured at 20 mins.
Experiment [8] concerns Rattus norvegicus. The experiment is described as follows: Acute antihypertensive activity in spontaneously hypertensive male Wistar Kyoto rat assessed as reduction in systolic blood pressure at 2.5 mg/kg administered via gavage measured after 4 hrs by tail-artery manometry. It is filed as functional.
Experiment [9] deals with Rattus norvegicus. The experiment is described as follows: Acute antihypertensive activity in spontaneously hypertensive male Wistar Kyoto rat assessed as reduction in diastolic blood pressure at 2.5 mg/kg administered via gavage measured after 6 hrs by tail-artery manometry. It is filed as functional.
For experiment [10], the system named is Rattus norvegicus. As to the kind of experiment: Subacute antihypertensive activity in spontaneously hypertensive male Wistar Kyoto rat assessed as reduction in systolic blood pressure at 5 mg/kg administered via gavage and measured after 1 week by tail-artery manometry. Particulars: time 1.0 weeks. In kind it is functional, organism-based.
Experiment [11] relates to Rattus norvegicus. As to the kind of experiment: Subacute antihypertensive activity in spontaneously hypertensive male Wistar Kyoto rat assessed as reduction in diastolic blood pressure at 5 mg/kg administered via gavage and measured after 1 week by tail-artery manometry. It is filed as functional, organism-based. Particulars: time 1.0 weeks.
Experiment [12] concerns Rattus norvegicus. As to the kind of experiment: Subacute antihypertensive activity in spontaneously hypertensive male Wistar Kyoto rat assessed as reduction in systolic blood pressure at 5 mg/kg administered via gavage for 4 weeks and measured at 22 hrs post dose by tail-artery manometry. It is filed as functional.
The test system of experiment [13] is Rattus norvegicus. As to the kind of experiment: Subacute antihypertensive activity in spontaneously hypertensive male Wistar Kyoto rat assessed as reduction in diastolic blood pressure at 5 mg/kg administered via gavage for 4 weeks and measured at 22 hrs post dose by tail-artery manometry. In kind it is functional.
Experiment [14] concerns Rattus norvegicus. As to the kind of experiment: Effect on spontaneously hypertensive male Wistar Kyoto rat assessed as reduction in serum ACE activity by measuring hippuric acid level at 5 mg/kg administered via gavage for 4 weeks and measured at 22 hrs post dose by RP-HPLC analysis. In kind it is functional, organism-based.
Experiment [15] concerns Rattus norvegicus. The experiment is described as follows: Effect on spontaneously hypertensive male Wistar Kyoto rat assessed as reduction in Ang II level in serum at 5 mg/kg administered via gavage for 4 weeks and measured at 22 hrs post dose by ELISA. It is filed as functional, organism-based.
Experiment [16] relates to Rattus norvegicus. The experiment is described as follows: Antihypertensive activity in spontaneously […] male Wistar Kyoto rat assessed as increase in fecal acetic acid level at 5 mg/kg administered via gavage for 4 weeks and measured at 22 hrs post dose by RP-HPLC analysis relative to control. In kind it is functional.
Experiment [17] relates to Rattus norvegicus. As to the kind of experiment: Antihypertensive activity in spontaneously […] male Wistar Kyoto rat assessed as increase in fecal propionic acid level at 5 mg/kg administered via gavage for 4 weeks and measured at 22 hrs post dose by RP-HPLC analysis relative to control. It is filed as functional.
The subject of experiment [18] is Rattus norvegicus. The experiment is described as follows: Antihypertensive activity in spontaneously […] male Wistar Kyoto rat assessed as increase in fecal butyric acid level at 5 mg/kg administered via gavage for 4 weeks and measured at 22 hrs post dose by RP-HPLC analysis relative to control. It is filed as functional.
For experiment [19], the species on record is Rattus norvegicus. The experiment is described as follows: Prevention of gut microbiota dysbiosis in spontaneously hypertensive male Wistar Kyoto rat model assessed as increase in shannon indices. In kind it is functional, organism-based.
The species named for experiment [20] is Rattus norvegicus. The experiment is described as follows: Prevention of gut microbiota dysbiosis in spontaneously hypertensive male Wistar Kyoto rat model assessed as increase in simpson indices. It is filed as functional, organism-based.
The species entered for experiment [21] is Rattus norvegicus. As to the kind of experiment: Prevention of gut microbiota dysbiosis in spontaneously hypertensive male Wistar Kyoto rat model assessed as increase in bacteroidetes abundance. In kind it is functional, organism-based.
For experiment [22], the species on record is Rattus norvegicus. The experiment is described as follows: Prevention of gut microbiota dysbiosis in spontaneously hypertensive male Wistar Kyoto rat model assessed as decrease in epsilonbacteraeota abundance. It is filed as functional, organism-based.
The species entered for experiment [23] is Rattus norvegicus. As to the kind of experiment: Prevention of gut microbiota dysbiosis in spontaneously hypertensive male Wistar Kyoto rat model assessed as fold increase in lachnospiraceae abundance. It is filed as functional.
The species entered for experiment [24] is Rattus norvegicus. The experiment is described as follows: Prevention of gut microbiota dysbiosis in spontaneously hypertensive male Wistar Kyoto rat model assessed as fold increase in rikenellaceae abundance. In kind it is functional.
For experiment [25], the species on record is Rattus norvegicus. As to the kind of experiment: Prevention of gut microbiota dysbiosis in spontaneously hypertensive male Wistar Kyoto rat model assessed as fold increase in ruminococcaceae abundance. It is filed as functional.
The species named for experiment [26] is Rattus norvegicus. The experiment is described as follows: Prevention of gut microbiota dysbiosis in spontaneously hypertensive male Wistar Kyoto rat model assessed as increase in enterobacteriaceae abundance relative to control. In kind it is functional.
For experiment [27], the species on record is Rattus norvegicus. As to the kind of experiment: Prevention of gut microbiota dysbiosis in spontaneously hypertensive male Wistar Kyoto rat model assessed as fold increase in ruminococcaceae UCG-014 abundance. In kind it is functional.
For experiment [28], the species on record is Rattus norvegicus. As to the kind of experiment: Prevention of gut microbiota dysbiosis in spontaneously hypertensive male Wistar Kyoto rat model assessed as fold increase in oscillibacter abundance. In kind it is functional.
For experiment [29], the species on record is Rattus norvegicus. As to the kind of experiment: Prevention of gut microbiota dysbiosis in spontaneously hypertensive male Wistar Kyoto rat model assessed as decrease in parabacteroides abundance relative to control. It is filed as functional. Also noted: scale not given: the % may be the effect or the level left.
The species entered for experiment [30] is Rattus norvegicus. As to the kind of experiment: Prevention of gut microbiota dysbiosis in spontaneously hypertensive male Wistar Kyoto rat model assessed as decrease in streptococcus abundance relative to control. In kind it is functional. Also noted: scale not given: the % may be the effect or the level left.
For experiment [31], the species on record is Rattus norvegicus. The experiment is described as follows: Prevention of gut microbiota dysbiosis in spontaneously hypertensive male Wistar Kyoto rat model assessed as fold increase in roseburia abundance. It is filed as functional.
Experiment [32] is filed under the species Rattus norvegicus. As to the kind of experiment: Prevention of gut microbiota dysbiosis in spontaneously hypertensive male Wistar Kyoto rat model assessed as fold increase in turicibacter abundance. It is filed as functional.
For experiment [33], the system named is Rattus norvegicus. The experiment is described as follows: Antihypertensive activity in spontaneously hypertensive male rat assessed as reduction in systolic blood pressure at 5 mg/kg, IG measured after 24 hrs by tail-cuff method. It is filed as functional.
Experiment [34] concerns Rattus norvegicus. The experiment is described as follows: Antihypertensive activity in spontaneously hypertensive male rat assessed as reduction in diastolic blood pressure at 5 mg/kg, IG measured after 24 hrs by tail-cuff method. It is filed as functional.

T1 sequence (P12821 whole entry): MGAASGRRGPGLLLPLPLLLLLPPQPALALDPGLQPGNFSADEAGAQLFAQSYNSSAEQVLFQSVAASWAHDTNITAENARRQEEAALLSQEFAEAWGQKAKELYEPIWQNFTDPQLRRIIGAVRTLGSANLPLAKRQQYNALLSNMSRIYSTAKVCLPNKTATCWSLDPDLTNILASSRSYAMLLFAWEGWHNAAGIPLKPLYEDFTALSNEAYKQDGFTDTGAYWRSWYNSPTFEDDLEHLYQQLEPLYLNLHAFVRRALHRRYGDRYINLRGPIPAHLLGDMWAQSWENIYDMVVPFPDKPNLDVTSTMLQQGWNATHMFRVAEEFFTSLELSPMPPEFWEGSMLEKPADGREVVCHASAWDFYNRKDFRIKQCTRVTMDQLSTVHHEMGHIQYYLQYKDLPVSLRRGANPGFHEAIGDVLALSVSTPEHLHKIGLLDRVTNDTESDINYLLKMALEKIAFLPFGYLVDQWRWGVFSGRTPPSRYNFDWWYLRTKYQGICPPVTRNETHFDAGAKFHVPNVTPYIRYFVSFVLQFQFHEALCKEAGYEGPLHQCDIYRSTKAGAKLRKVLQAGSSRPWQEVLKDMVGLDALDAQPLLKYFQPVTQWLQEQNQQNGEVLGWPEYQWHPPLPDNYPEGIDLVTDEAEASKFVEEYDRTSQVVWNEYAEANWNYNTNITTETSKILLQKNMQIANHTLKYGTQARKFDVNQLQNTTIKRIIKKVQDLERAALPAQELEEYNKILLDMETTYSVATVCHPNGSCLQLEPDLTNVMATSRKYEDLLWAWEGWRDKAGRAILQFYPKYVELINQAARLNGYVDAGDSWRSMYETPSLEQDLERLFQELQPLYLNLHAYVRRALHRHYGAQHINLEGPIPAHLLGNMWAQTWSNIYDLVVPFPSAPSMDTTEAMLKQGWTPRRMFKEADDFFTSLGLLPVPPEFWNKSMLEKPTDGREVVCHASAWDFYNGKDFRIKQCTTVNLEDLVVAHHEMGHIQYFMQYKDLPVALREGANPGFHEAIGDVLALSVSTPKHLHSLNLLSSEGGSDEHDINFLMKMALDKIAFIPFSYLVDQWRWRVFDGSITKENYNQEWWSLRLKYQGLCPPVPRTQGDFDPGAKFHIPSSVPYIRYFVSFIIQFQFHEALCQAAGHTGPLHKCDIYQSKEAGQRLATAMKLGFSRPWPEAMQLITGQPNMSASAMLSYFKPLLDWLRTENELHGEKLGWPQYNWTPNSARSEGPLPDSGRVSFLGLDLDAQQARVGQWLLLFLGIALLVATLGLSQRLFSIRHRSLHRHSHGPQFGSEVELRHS

On to `C[C@H](NC(=O)[C@@H](N)CCCCN)C(=O)N[C@@H](CCCCN)C(=O)N1CCC[C@H]1C(=O)O` (H-KAKP-OH), for which the -TdeltaS in [1] is -7.51 kcal/mol. Besides, in [2], the deltaH was -1.84 kcal/mol. Also, the IC50 – broadly, the concentration that inhibits the measured activity by half – in [3] came to 7.23 µM. The deltaS in experiment [4] stood at 25.2 cal/mol.K. Further, the deltaG in experiment [5] was -9.35 kcal/mol. Further, in experiment [6], the dissociation constant Kd (in general, a measure of binding affinity in units of concentration) worked out at 0.141 µM. In addition, the outcome in experiment [7] was Active.

Regarding `C[C@H](NC(=O)[C@H](CCCCN)NC(=O)[C@H](C)NC(=O)[C@@H](N)CCCCN)C(=O)O` (H-KAKA-OH), the half-maximal inhibitory concentration (IC50) in experiment [3] was 667 µM.

For `CC(C)[C@H](NC(=O)[C@H](CCCCN)NC(=O)[C@H](C)NC(=O)[C@@H](N)CCCCN)C(=O)O` (H-KAKV-OH), in [3], the half-inhibitory concentration (IC50) is 2920 µM.

With `C[C@H](NC(=O)[C@@H](N)CCCCN)C(=O)N[C@@H](CCCCN)C(=O)N[C@@H](Cc1ccccc1)C(=O)O` (H-KAKF-OH), in [3], the IC50 worked out at 12.5 µM.

Regarding `NCC(=O)N[C@@H](CCC(=O)O)C(=O)N1CCC[C@H]1C(=O)N[C@@H](Cc1ccccc1)C(=O)O` (H-GEPF-OH), the IC50 in [3] amounted to 36.1 µM.

`C[C@H](NC(=O)[C@@H](N)CCCCN)C(=O)N[C@@H](CCCCN)C(=O)N[C@@H](Cc1c[nH]c2ccccc12)C(=O)O` (H-KAKW-OH): in experiment [1], the -TdeltaS is -1.57 kcal/mol. In addition, the deltaH in [2] was -8.31 kcal/mol. In experiment [3], the IC50 amounted to 2.02 µM. The deltaS in experiment [4] came out at 5.28 cal/mol.K. In addition, in experiment [5], the deltaG is -9.88 kcal/mol. For the same compound, in experiment [6], the Kd was 0.0577 µM. Also, the outcome (in experiment [7]; in the experiment with Rattus norvegicus [10]; in the experiment with Rattus norvegicus [11]; in the experiment with Rattus norvegicus [14]; in the experiment on Rattus norvegicus [15]; in the experiment filed under Rattus norvegicus [19]) was Active. The result in the experiment filed under Rattus norvegicus [20], in the experiment filed under Rattus norvegicus [21] and in the experiment listed under Rattus norvegicus [22] was Active. Besides, the Activity in the experiment with Rattus norvegicus [8] came out at 20 mmHg; in the experiment with Rattus norvegicus [9], 18 mmHg; in the experiment with Rattus norvegicus [12], 11 mmHg; with Rattus norvegicus [13] it was 12 mmHg; in the experiment on Rattus norvegicus [16] it was 28%; in the experiment on Rattus norvegicus [17], 105%. In addition, the Activity came to 45% in the experiment on Rattus norvegicus [18], 85% in the experiment filed under Rattus norvegicus [26], 44% in the experiment listed under Rattus norvegicus [29] and 43% in the experiment listed under Rattus norvegicus [30]. Moreover, the “fold change (FC)” value in the experiment listed under Rattus norvegicus [23] is given as 1.5; in the experiment filed under Rattus norvegicus [24], 4.4; in the experiment filed under Rattus norvegicus [25], 4.4; in the experiment filed under Rattus norvegicus [27] it was 1.8; in the experiment listed under Rattus norvegicus [28], 2.6; in the experiment listed under Rattus norvegicus [31] it was 2. Also, in the experiment filed under Rattus norvegicus [32], the “fold change (FC)” value turned out to be 2.3.

Consider `C[C@H](NC(=O)[C@@H](N)CCCCN)C(=O)N1CCC[C@H]1C(=O)N[C@@H](CCCCN)C(=O)O` (H-KAPK-OH), for which, in experiment [3], the IC50 was 1450 µM.

`N=C(N)NCCC[C@H](NC(=O)[C@@H]1CCCN1C(=O)[C@H](CC(N)=O)NC(=O)CN)C(=O)O` (H-GNPR-OH): the IC50 in experiment [3] turned out to be 3050 µM.

For `CC(C)C[C@H](NC(=O)[C@H](CO)NC(=O)[C@@H](NC(=O)CNC(=O)CNC(=O)[C@H](Cc1ccc(O)cc1)NC(=O)CNC(=O)[C@@H](N)CCCCN)C(C)C)C(=O)N1CCC[C@H]1C(=O)N[C@@H](CCC(=O)O)C(=O)N[C@@H](Cc1c[nH]c2ccccc12)C(=O)O` (H-KGYGGVSLPEW-OH), the Activity in the experiment on Rattus norvegicus [33] is recorded as 20 mmHg; with Rattus norvegicus [34] it was 27 mmHg.
